Series [1] is described as follows: AUC in rat at 5 mg/kg, po. In kind it is ADME, organism-based. Also noted: dose 5 mg/kg. The following applies: in vivo.
Series [2] is described as follows: Permeability of compound across apical to basolateral membrane in MDCK cells. The format is ADME, cell-based, Canis lupus familiaris. The following applies: dog, read-out: permeability.
For series [3], the target named is T1, Cystic fibrosis transmembrane conductance regulator (Homo sapiens, UniProt P13569, F508DEL). The experiment in a line: Potentiation of CFTR F508del mutant (unknown origin) expressed in human CFBE41o- cells co-expressing YFP incubated for 10 mins by halide potentiator assay. In kind it is cell-based.
T1 sequence (P13569 as listed by the source): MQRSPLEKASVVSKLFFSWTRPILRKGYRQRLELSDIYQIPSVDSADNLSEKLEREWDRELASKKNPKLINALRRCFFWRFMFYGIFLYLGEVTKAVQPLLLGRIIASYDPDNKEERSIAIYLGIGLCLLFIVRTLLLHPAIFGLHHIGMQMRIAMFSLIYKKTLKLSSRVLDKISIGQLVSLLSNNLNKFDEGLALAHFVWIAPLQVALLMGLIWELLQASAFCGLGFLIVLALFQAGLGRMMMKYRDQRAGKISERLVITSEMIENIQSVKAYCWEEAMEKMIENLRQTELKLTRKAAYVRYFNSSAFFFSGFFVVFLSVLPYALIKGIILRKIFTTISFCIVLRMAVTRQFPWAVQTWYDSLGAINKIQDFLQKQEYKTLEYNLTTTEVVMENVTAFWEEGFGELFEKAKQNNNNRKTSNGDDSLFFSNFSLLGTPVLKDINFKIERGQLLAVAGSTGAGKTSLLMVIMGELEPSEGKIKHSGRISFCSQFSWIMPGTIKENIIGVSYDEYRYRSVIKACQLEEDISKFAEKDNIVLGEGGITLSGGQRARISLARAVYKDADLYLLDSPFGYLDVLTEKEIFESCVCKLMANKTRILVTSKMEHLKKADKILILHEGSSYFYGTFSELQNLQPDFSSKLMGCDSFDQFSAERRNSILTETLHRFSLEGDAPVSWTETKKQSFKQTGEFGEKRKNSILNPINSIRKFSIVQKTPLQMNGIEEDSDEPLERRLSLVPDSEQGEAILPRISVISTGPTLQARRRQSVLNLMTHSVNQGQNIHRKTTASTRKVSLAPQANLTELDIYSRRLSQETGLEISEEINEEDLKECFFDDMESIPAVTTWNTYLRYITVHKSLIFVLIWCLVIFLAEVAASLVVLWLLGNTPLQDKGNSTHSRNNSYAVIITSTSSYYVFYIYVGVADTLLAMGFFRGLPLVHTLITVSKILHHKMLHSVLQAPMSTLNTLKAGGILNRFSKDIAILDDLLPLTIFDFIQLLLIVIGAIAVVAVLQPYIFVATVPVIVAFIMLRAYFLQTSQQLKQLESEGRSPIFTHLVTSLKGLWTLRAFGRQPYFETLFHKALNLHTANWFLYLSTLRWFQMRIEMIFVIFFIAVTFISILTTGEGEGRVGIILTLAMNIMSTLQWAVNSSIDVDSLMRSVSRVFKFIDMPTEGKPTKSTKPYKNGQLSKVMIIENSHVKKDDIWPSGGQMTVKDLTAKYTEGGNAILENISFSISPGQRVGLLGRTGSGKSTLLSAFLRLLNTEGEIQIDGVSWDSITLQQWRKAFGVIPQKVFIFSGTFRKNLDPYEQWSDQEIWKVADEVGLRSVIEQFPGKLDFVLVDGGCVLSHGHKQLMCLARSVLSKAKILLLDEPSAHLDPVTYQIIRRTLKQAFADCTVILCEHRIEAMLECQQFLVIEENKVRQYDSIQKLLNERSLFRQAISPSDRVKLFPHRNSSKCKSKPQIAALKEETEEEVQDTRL
Series [4] in a line: Permeability efflux ratio in MDCK cells. In kind it is ADME, cell-based, Canis lupus familiaris. The following applies: dog.
Series [5] in a line: Unbound intrinsic clearance in rat hepatocytes. The format is ADME, cell-based, Hepatocyte.
Series [6] in a line: Unbound intrinsic clearance in rat liver microsomes. The format is ADME, Microsome.
Series [7] is described as follows: Clearance in Sprague-Dawley rat at 1 mg/kg, iv. The format is ADME, organism-based. The following applies: in vivo.
A short description of series [8]: Unbound intrinsic clearance in human liver microsomes. In kind it is ADME, Microsome.
Series [9] can be described thus: Volume of distribution at steady state in Sprague-Dawley rat at 1 mg/kg, iv. In kind it is ADME, organism-based. The following applies: in vivo, read-out: Vdss.
A short description of series [10]: Unbound clearance in Sprague-Dawley rat at 1 mg/kg, iv. The note with it: in vivo. In kind it is ADME, organism-based.
The nature of series [11]: Inhibition of CYP450 (unknown origin). In kind it is ADME. The following applies: human.
Series [12] is described as follows: Half life in Sprague-Dawley rat at 1 mg/kg, iv. The format is ADME, organism-based. The note with it: in vivo.
Series [13] deals with T2, Nuclear receptor subfamily 1 group I member 2 (Homo sapiens, UniProt O75469).
T2 sequence (O75469 whole entry): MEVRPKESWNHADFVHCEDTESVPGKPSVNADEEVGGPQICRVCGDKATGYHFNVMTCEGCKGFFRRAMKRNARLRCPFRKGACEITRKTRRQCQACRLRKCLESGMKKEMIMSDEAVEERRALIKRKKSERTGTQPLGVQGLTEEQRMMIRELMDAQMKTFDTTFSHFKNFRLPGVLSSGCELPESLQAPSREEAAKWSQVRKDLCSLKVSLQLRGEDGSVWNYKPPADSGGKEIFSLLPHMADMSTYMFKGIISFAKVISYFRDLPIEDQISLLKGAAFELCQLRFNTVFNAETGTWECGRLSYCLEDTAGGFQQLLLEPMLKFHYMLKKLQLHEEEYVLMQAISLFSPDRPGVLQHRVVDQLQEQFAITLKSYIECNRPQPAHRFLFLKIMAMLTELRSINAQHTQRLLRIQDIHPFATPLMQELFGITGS
In words: Activation of PXR (unknown origin) at 10 uM by CYP450 induction assay relative to rifampicin. The format is ADME.

The nature of series [14]: Kinetic aqueous solubility of the compound at pH 7.4. The format is physicochemical. The note with it: buffer, read-out: Kinetic_solubility.
A short description of series [15]: Half life in Cynomolgus monkey at 1 mg/kg, iv. In kind it is ADME, organism-based, Macaca fascicularis. The note with it: in vivo.
The nature of series [16]: Unbound intrinsic clearance in monkey liver microsomes. The format is ADME, Macaca mulatta, Microsome. The following applies: rhesus monkey.
Series [17] in a line: Oral bioavailability in Beagle dog at 1 mg/kg. In kind it is ADME, organism-based, Canis lupus familiaris. The note with it: in vivo.
Series [18] is described as follows: Toxicity in human assessed as drug tolerability during phase I study.
Series [19] in a line: Unbound clearance in Cynomolgus monkey at 1 mg/kg, iv. The following applies: in vivo. In kind it is ADME, organism-based, Macaca fascicularis.
Series [20] in a line: Unbound intrinsic clearance in dog liver microsomes. The format is ADME, Canis lupus familiaris, Microsome.
Series [21] concerns the target T3, Cytochrome P450 1A2 (Homo sapiens, UniProt P05177).
T3 sequence (P05177 whole entry): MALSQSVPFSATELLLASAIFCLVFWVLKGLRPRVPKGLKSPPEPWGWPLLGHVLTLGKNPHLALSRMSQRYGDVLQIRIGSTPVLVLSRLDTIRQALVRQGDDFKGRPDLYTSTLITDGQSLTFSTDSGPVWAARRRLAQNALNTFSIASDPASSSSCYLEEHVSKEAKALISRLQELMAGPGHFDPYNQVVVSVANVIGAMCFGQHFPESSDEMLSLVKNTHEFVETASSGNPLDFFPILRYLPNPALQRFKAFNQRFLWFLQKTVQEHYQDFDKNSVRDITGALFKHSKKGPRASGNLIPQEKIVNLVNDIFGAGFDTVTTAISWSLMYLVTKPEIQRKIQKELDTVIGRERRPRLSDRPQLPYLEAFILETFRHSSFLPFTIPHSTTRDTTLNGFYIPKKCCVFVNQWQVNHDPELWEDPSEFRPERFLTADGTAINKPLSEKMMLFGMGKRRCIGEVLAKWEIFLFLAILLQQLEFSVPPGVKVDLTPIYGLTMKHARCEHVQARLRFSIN
In words: Inhibition of CYP1A2 (unknown origin). The format is ADME.

The target of series [22] is Cytochrome P450 3A4 (Homo sapiens, UniProt P08684). The experiment in a line: Inhibition of CYP3A4 (unknown origin). The format is ADME.
Chain of Cytochrome P450 3A4 (P08684 whole entry): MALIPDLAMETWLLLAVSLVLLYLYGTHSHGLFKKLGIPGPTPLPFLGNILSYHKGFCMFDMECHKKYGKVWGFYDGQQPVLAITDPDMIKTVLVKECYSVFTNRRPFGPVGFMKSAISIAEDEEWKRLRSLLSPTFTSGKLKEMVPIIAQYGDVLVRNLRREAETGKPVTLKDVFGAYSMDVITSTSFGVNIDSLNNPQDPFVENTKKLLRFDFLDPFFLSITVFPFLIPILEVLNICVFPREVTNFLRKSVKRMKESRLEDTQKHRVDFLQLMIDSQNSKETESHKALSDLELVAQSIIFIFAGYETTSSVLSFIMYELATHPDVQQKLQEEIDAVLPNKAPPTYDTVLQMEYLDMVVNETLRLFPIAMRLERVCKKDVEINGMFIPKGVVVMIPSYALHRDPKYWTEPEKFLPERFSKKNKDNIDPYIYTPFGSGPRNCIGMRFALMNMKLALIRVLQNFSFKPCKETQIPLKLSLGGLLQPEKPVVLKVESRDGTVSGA
A short description of series [23]: Volume of distribution at steady state in Beagle dog at 1 mg/kg, iv. The format is ADME, organism-based, Canis lupus familiaris. The note with it: in vivo, read-out: Vdss.
Series [24] can be described thus: Oral bioavailability Cynomolgus monkey at 1 mg/kg, […]. The note with it: in vivo. In kind it is ADME, organism-based, Macaca fascicularis.
Series [25] has as its target Cytochrome P450 2C9 (Homo sapiens, UniProt P11712). In words: Inhibition of CYP2C9 (unknown origin). In kind it is ADME.
Series [26] addresses Voltage-gated inwardly rectifying potassium channel KCNH2 (Homo sapiens, UniProt Q12809). The experiment in a line: Inhibition of human ERG by manual patch clamp assay.
Series [27] can be described thus: Clearance in Cynomolgus monkey at 1 mg/kg, iv. The format is ADME, organism-based, Macaca fascicularis. The note with it: in vivo.
Series [28] in a line: Clearance in Beagle dog at 1 mg/kg, iv. The note with it: in vivo. In kind it is ADME, organism-based, Canis lupus familiaris.
Series [29] in a line: Half life in Beagle dog at 1 mg/kg, iv. The note with it: in vivo. In kind it is ADME, organism-based, Canis lupus familiaris.
Series [30] in a line: Volume of distribution at steady state in Cynomolgus monkey at 1 mg/kg, iv. In kind it is ADME, organism-based, Macaca fascicularis. The following applies: in vivo, read-out: Vdss.
Series [31] concerns the target Cytochrome P450 2C19 (Homo sapiens, UniProt P33261). In words: Inhibition of CYP2C19 (unknown origin). The format is ADME.
Series [32] has as its target T1, Cystic fibrosis transmembrane conductance regulator. In words: Potentiation of CFTR F508del mutant in human HBE cells by trans-epithelial clamp circuit assay. In kind it is cell-based, Primary bronchial epithelial cell.
Series [33] can be described thus: Unbound clearance in Beagle dog at 1 mg/kg, iv. The format is ADME, organism-based, Canis lupus familiaris. The note with it: in vivo.
The nature of series [34]: Thermodynamic solubility of the compound in the FASSIF medium. The format is physicochemical. The following applies: read-out: Therm_solubility.
The target in series [35] is Cytochrome P450 2D6 (Homo sapiens, UniProt P10635). In words: Inhibition of CYP2D6 (unknown origin). The format is ADME.
Chain of Cytochrome P450 2D6 (P10635 whole entry): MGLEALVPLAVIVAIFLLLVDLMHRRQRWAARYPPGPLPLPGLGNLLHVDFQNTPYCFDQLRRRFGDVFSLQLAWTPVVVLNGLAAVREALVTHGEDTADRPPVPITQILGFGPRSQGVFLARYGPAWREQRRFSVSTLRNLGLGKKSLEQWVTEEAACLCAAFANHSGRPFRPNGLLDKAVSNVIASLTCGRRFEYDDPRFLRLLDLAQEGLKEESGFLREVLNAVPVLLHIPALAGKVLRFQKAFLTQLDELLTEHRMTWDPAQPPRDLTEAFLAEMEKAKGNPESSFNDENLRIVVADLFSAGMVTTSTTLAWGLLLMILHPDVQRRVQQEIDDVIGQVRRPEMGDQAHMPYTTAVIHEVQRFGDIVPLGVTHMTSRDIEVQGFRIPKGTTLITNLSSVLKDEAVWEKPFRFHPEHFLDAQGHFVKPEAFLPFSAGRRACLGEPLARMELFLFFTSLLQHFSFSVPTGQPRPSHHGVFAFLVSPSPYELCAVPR
A short description of series [36]: Genotoxicity in Salmonella typhimurium. In kind it is toxicity. The note with it: salmonella enterica subsp. enterica serovar typhimurium.

Converted amounts (≈) assume the structure as drawn. Some results are limits rather than exact numbers.

Chain of Cytochrome P450 2C9 (P11712 whole entry): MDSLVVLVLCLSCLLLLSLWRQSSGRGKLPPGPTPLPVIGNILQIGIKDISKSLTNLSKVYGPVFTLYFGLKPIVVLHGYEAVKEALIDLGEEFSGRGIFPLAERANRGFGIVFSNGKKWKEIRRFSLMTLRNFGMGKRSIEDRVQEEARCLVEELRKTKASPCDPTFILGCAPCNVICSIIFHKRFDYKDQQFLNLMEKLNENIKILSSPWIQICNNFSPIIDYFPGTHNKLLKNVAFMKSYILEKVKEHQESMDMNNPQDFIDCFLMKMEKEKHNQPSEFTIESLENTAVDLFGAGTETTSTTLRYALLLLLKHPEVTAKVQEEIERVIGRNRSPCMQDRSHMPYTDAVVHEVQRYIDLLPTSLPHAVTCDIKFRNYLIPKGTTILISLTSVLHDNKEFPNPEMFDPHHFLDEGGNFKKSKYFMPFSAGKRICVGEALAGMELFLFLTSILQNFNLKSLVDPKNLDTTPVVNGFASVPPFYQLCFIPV
Chain of Cytochrome P450 2C19 (P33261 whole entry): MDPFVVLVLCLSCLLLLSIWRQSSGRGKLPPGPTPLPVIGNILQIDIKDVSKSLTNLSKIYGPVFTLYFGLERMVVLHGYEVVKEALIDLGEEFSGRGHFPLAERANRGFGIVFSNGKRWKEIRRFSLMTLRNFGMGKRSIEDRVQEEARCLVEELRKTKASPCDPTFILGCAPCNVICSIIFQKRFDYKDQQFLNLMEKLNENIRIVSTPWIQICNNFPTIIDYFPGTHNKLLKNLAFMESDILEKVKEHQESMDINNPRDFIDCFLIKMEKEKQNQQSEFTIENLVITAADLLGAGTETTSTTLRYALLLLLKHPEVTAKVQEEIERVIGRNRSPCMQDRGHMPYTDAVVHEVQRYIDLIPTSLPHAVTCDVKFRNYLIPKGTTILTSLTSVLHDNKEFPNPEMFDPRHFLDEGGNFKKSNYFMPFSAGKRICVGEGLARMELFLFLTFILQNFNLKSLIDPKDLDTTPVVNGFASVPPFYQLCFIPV
Chain of Voltage-gated inwardly rectifying potassium channel KCNH2 (Q12809 whole entry): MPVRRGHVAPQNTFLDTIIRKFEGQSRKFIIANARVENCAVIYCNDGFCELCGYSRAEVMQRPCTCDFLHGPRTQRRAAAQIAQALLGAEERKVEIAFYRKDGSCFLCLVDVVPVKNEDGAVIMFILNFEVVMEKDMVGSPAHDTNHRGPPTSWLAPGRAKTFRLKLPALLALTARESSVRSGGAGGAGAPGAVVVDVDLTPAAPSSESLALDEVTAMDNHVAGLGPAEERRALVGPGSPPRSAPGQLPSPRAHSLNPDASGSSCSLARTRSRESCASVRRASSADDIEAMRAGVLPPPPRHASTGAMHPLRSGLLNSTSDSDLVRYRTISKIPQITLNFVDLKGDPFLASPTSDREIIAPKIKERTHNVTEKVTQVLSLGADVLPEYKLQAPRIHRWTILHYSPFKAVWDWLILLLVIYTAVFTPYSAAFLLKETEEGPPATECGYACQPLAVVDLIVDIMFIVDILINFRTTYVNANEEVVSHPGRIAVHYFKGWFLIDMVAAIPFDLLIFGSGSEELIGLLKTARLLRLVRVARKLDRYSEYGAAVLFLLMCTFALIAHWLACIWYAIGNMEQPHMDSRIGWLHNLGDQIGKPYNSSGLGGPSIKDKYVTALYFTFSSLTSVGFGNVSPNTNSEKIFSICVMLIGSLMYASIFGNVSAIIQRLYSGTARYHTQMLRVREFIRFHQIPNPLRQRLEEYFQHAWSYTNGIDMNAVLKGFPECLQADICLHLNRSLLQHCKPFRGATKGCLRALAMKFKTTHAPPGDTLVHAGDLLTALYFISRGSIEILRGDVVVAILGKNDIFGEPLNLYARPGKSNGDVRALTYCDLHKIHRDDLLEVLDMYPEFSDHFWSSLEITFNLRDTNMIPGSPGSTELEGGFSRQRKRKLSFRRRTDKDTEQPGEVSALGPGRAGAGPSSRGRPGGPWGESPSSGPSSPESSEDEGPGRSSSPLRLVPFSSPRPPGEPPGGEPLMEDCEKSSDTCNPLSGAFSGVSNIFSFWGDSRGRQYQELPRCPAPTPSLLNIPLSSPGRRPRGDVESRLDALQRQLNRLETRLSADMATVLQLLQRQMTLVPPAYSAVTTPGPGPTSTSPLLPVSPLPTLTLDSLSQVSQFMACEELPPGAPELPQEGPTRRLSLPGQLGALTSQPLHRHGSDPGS

Molecule `CC(C)(O)C(=O)Nc1sc(S(=O)(=O)c2ccc(F)cc2)cc1C(N)=O` gave an AUC in series [1] of 5600 ng·h/mL. Moreover, the Papp A→B in series [2] was found to be 4 ×10⁻⁶ cm/s. Further, in series [3], the concentration for a half-maximal effect (EC50) stood at 26 nM. In addition, the efflux ratio in series [4] was determined as 5. Also, the CL free in [5] came to 46.7 mL/min/kg; in [6] it was 30 mL/min/kg.
Regarding `Nc1cc(S(=O)(=O)c2ccccc2OC(F)(F)F)cnc1C(=O)NC[C@@H](O)C(F)(F)F`, in series [7], the clearance is 9.83 mL/min/kg. The CL free in series [8] is 45 mL/min/kg; in series [10], 258 mL/min/kg; in series [6], 120 mL/min/kg. The EC50 in series [3] is under 0.31 nM. Also, in [9], the Vd stood at 5.1 L/kg. The “inhibition (INH)” value in [11] was “Not Active”. In addition, the half-life in series [12] is 6.7 h. Also, the Activity in [13] is given as 80%. For the same molecule, in series [14], the solubility kinetic turned out to be 75 µM (≈ 35.5 µg/mL).
For `NC(=O)c1cc(S(=O)(=O)c2ccc(F)cc2)sc1NC(=O)C1(O)CC1`, the AUC in series [1] amounted to 500 ng·h/mL. For the same molecule, the Papp A→B in [2] was 1 ×10⁻⁶ cm/s. Moreover, in series [3], the EC50 stood at 79 nM. In addition, the efflux ratio in [4] was found to be 137. Further, the CL free worked out at 107 mL/min/kg in series [5] and 76.7 mL/min/kg in series [6].
As for `Nc1cc(S(=O)(=O)c2ccc(OC(F)(F)F)cc2)cnc1C(=O)NC[C@@H](O)C(F)(F)F`, the clearance in series [7] was 1.33 mL/min/kg. The CL free in [8] turned out to be 36.7 mL/min/kg; in [10], 86.7 mL/min/kg; in series [6], 58.3 mL/min/kg. For the same molecule, in series [3], the EC50 came out at 3.4 nM. In addition, the Vd in series [9] was 6 L/kg. Besides, the “inhibition (INH)” value in series [11] was “Not Active”. For the same molecule, the half-life in [12] is over 50 h. This molecule also yielded an Activity in [13] of 10%. In addition, the solubility kinetic in series [14] is under 19 µM.
`Nc1cc(S(=O)(=O)c2ccc(F)cc2)cnc1C(=O)NC[C@@H](O)C(F)(F)F`: the clearance in series [7] is 2.17 mL/min/kg. Besides, the CL free in [8] is 17 mL/min/kg; in [10], 26.8 mL/min/kg; in [6], 26.7 mL/min/kg. Also, the EC50 in series [3] was 7.8 nM. In series [9], the Vd worked out at 2.9 L/kg. In [12], this molecule gave a half-life of over 15 h.
For the molecule `NC(=O)c1cc(S(=O)(=O)N2CCCCC2)sc1NC(=O)c1ccn[nH]1`, the Papp A→B in [2] stood at 0.5 ×10⁻⁶ cm/s. For the same molecule, the EC50 in [3] turned out to be 13 nM. In [4], the efflux ratio stood at 40. For the same molecule, the CL free in [6] is 250 mL/min/kg.
As for `C[C@H](O)CNC(=O)c1ncc(S(=O)(=O)c2ccc(OC(F)(F)F)cc2)cc1N`, the half-life in series [15] was 16 h; in [12], 8.9 h; in [29], 15 h. For the same molecule, the CL free in series [16] was 18.3 mL/min/kg; in series [19] it was 21.7 mL/min/kg; in [20], 28.3 mL/min/kg; in [8] it was 20 mL/min/kg; in series [10] it was 45 mL/min/kg; in series [6], 41.7 mL/min/kg. This molecule also showed a CL free in series [33] of 33 mL/min/kg. In series [17], this molecule yielded a bioavailability of 93%. Also, the Activity entry is reported as “Non-Toxic” in series [18] and 12% in [13]. The clearance in series [7] was 1.33 mL/min/kg; in series [27] it was 0.667 mL/min/kg; in series [28], 2.33 mL/min/kg. Moreover, the half-maximal effective concentration (EC50) in [21] was over 100000 nM; in [3], 11 nM; in [22], over 100000 nM; in series [25], 26000 nM; in series [26], over 30000 nM; in series [31], over 33000 nM. For the same molecule, the EC50 in series [32] is 18 nM; in [35] it was over 100000 nM. Further, the results for the Vd in series [23], in [9] and in series [30] were 2.7 L/kg, 1.1 L/kg and 0.8 L/kg, respectively. The same molecule displayed a F in series [24] of 100%. For the same molecule, in series [14], the solubility kinetic was found to be 37 µM (≈ 15.5 µg/mL). Further, the solubility thermodynamic in series [34] is 83 µM (≈ 34.8 µg/mL).
Take `CC(C)(O)CNC(=O)c1ncc(S(=O)(=O)c2ccc(OC(F)(F)F)cc2)cc1N`: the EC50 in [3] was 33 nM. Moreover, the CL free in series [6] turned out to be 93.3 mL/min/kg. Further, in series [11], the “inhibition (INH)” value is on record as “Not Active”. The Activity is 41% in series [13] and “Non-Toxic” in series [36]. Also, the solubility kinetic in [14] came to 37 µM (≈ 16 µg/mL).
As to `Nc1cc(S(=O)(=O)N2CCC(OC(F)(F)F)CC2)cnc1C(=O)NCC(O)C(F)(F)F` (stereo unspecified), in series [7], the clearance is 31.7 mL/min/kg. For the same molecule, the CL free in series [8] was 130 mL/min/kg; in series [10], 317 mL/min/kg; in series [6] it was 300 mL/min/kg. Also, the EC50 in series [3] came out at 5 nM. Also, the Vd in [9] is 3.2 L/kg. Further, the half-life in series [12] was 1.3 h.
